Source: patent publication US20090286725A1, “PEPTIDES AND DERIVATIVES THEREOF, THE MANUFACTURING THEREOF AS WELL AS THEIR USE FOR PREPARING A THERAPEUTICALLY AND/OR PREVENTIVELY ACTIVE PHARMACEUTICAL COMPOSITION” (FIBREX MEDICAL RESEARCH & DEVELOPMENT GMBH, priority 2008, published 2009)
No end group written: not given here.

What was measured:
[1] = test system: RhoA; assay: thrombin induced RhoA activation in HUVEC culture (Rho pull-down, Western blot); assay type: cell-based, human; conditions: 5 U/ml thrombin alone, 5 min
Protocol: The biological effect of the compounds was established in a model thrombin induced RhoA activation in human umbilical vein endothelial cell (HUVEC) culture.
HUVEC are grown to confluence under standard conditions. Before induction of Rho activity HUVEC were starved for 4 h by using IMDM (Gibco) without growth factor and serum supplements. After the starvation period 5 U/ml Thrombin (Calbiochem) or 5 U thrombin plus 50 μg/ml of test compound are added to the starvation medium for 1, 5 and 10 min. Active RhoA was isolated using Rho Assay Reagent from Upstate according to manufactures instructions. Isolates were separated on a 15% polyacrylamid gel and blotted on Nitrocellulose-Membrane (Bio-Rad). RhoA was dedected by using Anti-Rho (-A, -B, -C), clone55 from Upstate (1:500).

[2] = molecular target: T1, vascular endothelial (VE) cadherin (human, UniProt P33151 48-784); assay: cell-based or functional assay
T1 sequence (looked up): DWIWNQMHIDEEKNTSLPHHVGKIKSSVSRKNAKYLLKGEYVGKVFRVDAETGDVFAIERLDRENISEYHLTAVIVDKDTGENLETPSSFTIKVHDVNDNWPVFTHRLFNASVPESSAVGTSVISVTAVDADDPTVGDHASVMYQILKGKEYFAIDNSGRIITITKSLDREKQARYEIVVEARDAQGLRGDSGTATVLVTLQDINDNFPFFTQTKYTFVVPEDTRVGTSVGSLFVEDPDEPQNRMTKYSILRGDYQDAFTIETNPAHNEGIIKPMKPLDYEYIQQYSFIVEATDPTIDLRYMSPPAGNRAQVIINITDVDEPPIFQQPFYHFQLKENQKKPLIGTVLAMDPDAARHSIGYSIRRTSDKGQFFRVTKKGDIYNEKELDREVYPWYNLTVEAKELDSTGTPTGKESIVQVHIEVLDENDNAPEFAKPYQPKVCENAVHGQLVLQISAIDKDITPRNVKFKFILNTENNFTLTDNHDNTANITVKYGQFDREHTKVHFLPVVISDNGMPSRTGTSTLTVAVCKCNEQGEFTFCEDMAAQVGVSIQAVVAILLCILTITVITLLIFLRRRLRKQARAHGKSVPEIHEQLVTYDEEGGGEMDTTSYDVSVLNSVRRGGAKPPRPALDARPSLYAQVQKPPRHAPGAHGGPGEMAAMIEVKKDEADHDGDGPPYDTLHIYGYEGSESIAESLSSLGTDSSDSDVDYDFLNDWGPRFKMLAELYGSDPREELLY

## thrombin
[1]
  Relative RhoA stimulation compared to unstimulated control: 3.8

B1: Gly-His-Arg-Pro-Leu-Asp-Lys-Lys-Arg-Glu-Glu-Ala-Pro-Ser-Leu-Arg-Pro-Ala-Pro-Pro-Pro-Ile-Ser-Gly-Gly-OH (peptide)
peptide: GHRPLDKKREEAPSLRPAPPPISGG-OH
[2]
  Relative RhoA stimulation compared to unstimulated control: 0.85 fold of unstimulated control
